Type in all cases: in vivo
The test system of assay [1] is Echinochloa crus-galli. Briefly: Post-emergence herbicidal effect. The settings on record: 80 g/ha, post-emergence at one-leaf stage, assessed visually after about 3 weeks; 100% = plants have died, 0% = like control plants. As to the method: (§1) Seeds of monocotyledonous and dicotyledonous weed and crop plants are laid out in sandy loam soil in wood-fiber pots, covered with soil and cultivated in a greenhouse under good growth conditions. 2 to 3 weeks after sowing, the test plants are treated at the one-leaf stage. The compounds of the invention, formulated in the form of wettable powders (WP) or as emulsion concentrates (EC), are then sprayed onto the green parts of the plants as aqueous suspension or emulsion at a water application rate equating to 600 to 800 l/ha with addition of 0.2% wetting agent. After the test plants have been left to stand in the greenhouse under optimal growth conditions for about 3 weeks, the action of the preparations is assessed visually in comparison to untreated controls (herbicidal action in per cent (%): 100% activity=the plants have died, 0% activity=like control plants).

Assay [2] relates to Lolium rigidum. Briefly: Post-emergence herbicidal effect. As to conditions: 80 g/ha, post-emergence at one-leaf stage, assessed visually after about 3 weeks; 100% = plants have died, 0% = like control plants. As to the method: as §1
Assay [3] deals with Setaria viridis. Briefly: Post-emergence herbicidal effect. As to conditions: 80 g/ha, post-emergence at one-leaf stage, assessed visually after about 3 weeks; 100% = plants have died, 0% = like control plants. As to the method: as §1
Assay [4] has as its system Alopecurus myosuroides. Briefly: Post-emergence herbicidal effect. The settings on record: 80 g/ha, post-emergence at one-leaf stage, assessed visually after about 3 weeks; 100% = plants have died, 0% = like control plants. On the procedure:
as §1

For assay [5], the system named is Digitaria sanguinalis. Briefly: Post-emergence herbicidal effect. The settings on record: 80 g/ha, post-emergence at one-leaf stage, assessed visually after about 3 weeks; 100% = plants have died, 0% = like control plants. On the procedure: as §1
In assay [6] the test system is Echinochloa crus-galli. Briefly: Pre-emergence herbicidal effect. As to conditions: 80 g/ha, scored visually after 3 weeks, 100% = plants have died, 0% = like control plants. The source says: (§2) Seeds of monocotyledonous and dicotyledonous weed plants and crop plants are laid out in sandy loam soil in wood-fiber pots and covered with soil. The compounds of the invention, formulated in the form of wettable powders (WP) or as emulsion concentrates (EC), are then applied to the surface of the covering soil as aqueous suspension or emulsion at a water application rate equating to 600 to 800 L/ha with addition of 0.2% wetting agent.
(§3) After the treatment, the pots are placed in a greenhouse and kept under good growth conditions for the trial plants. The damage to the test plants is scored visually after a test period of 3 weeks by comparison with untreated controls (herbicidal activity in percent (%): 100% activity=the plants have died, 0% activity=like control plants).

Assay [7] has as its system Avena fatua. Briefly: Pre-emergence herbicidal effect. The settings on record: 80 g/ha, scored visually after 3 weeks, 100% = plants have died, 0% = like control plants.
Source text: as §2, §3

The test system of assay [8] is Lolium rigidum. Briefly: Pre-emergence herbicidal effect. As to conditions: 80 g/ha, scored visually after 3 weeks, 100% = plants have died, 0% = like control plants.
Source text: as §2, §3

In assay [9] the test system is Setaria viridis. Briefly: Pre-emergence herbicidal effect. As to conditions: 80 g/ha, scored visually after 3 weeks, 100% = plants have died, 0% = like control plants.
Source text: as §2, §3

Assay [10] concerns Alopecurus myosuroides. Briefly: Pre-emergence herbicidal effect. The settings on record: 80 g/ha, scored visually after 3 weeks, 100% = plants have died, 0% = like control plants.
Source text: as §2, §3

Assay [11] relates to Hordeum murinum. Briefly: Pre-emergence herbicidal effect. The settings on record: 80 g/ha, scored visually after 3 weeks, 100% = plants have died, 0% = like control plants.
Source text: as §2, §3

Molecules are shown by their SMILES.

Here are results for five molecules from patent publication US20230059463A1, “3-(2-BROMO-4-ALKYNYL-6-ALKOXYPHENYL)-SUBSTITUTED 5-SPIROCYCLOHEXYL-3-PYRROLIN-2-ONES AND THEIR USE AS HERBICIDES” (Bayer Aktiengesellschaft, priority 2019, published 2023).

For `C#Cc1cc(Br)c(C2=C(OC(=O)OCC)C3(CCCC(OCCC)C3)NC2=O)c(OC)c1` (stereo not shown) [Example 1.1.03], the “Post-emergence action against ECHCG (herbicidal action in per cent)” value in [1] was 90%. Also, in [2], the “Post-emergence action against LOLRI (herbicidal action in per cent)” value came to 80%. Besides, the “Post-emergence action against SETVI (herbicidal action in per cent)” value in assay [3] is reported as 100%. Also, the “Post-emergence action against ALOMY (herbicidal action in per cent)” value in [4] turned out to be 80%. For the same molecule, the “Post-emergence action against DIGSA (herbicidal action in per cent)” value in assay [5] was determined as 90%. In addition, in assay [6], the “Pre-emergence action against ECHCG (herbicidal activity in percent)” value is 100%. Further, the “Pre-emergence action against AVEFA (herbicidal activity in percent)” value in assay [7] was determined as 90%. Also, the “Pre-emergence action against LOLRI (herbicidal activity in percent)” value in assay [8] came to 100%. Further, the “Pre-emergence action against SETVI (herbicidal activity in percent)” value in assay [9] came out at 100%. Besides, in [10], the “Pre-emergence action against ALOMY (herbicidal activity in percent)” value worked out at 90%. Further, the “Pre-emergence action against HORMU (herbicidal activity in percent)” value in [11] stood at 90%.
As to `C#Cc1cc(Br)c(C2=C(OC(=O)C(C)C)C3(CCCC(OCCC)C3)NC2=O)c(OC)c1` (stereo not shown) [Example 1.1.04], in assay [1], the “Post-emergence action against ECHCG (herbicidal action in per cent)” value turned out to be 80%. Moreover, the “Post-emergence action against LOLRI (herbicidal action in per cent)” value in assay [2] was 80%. The “Post-emergence action against SETVI (herbicidal action in per cent)” value in assay [3] was 100%. Moreover, in [4], the “Post-emergence action against ALOMY (herbicidal action in per cent)” value is 90%. Moreover, in [5], the “Post-emergence action against DIGSA (herbicidal action in per cent)” value is on record as 90%. In [6], the “Pre-emergence action against ECHCG (herbicidal activity in percent)” value worked out at 100%. Also, the “Pre-emergence action against AVEFA (herbicidal activity in percent)” value in assay [7] came out at 90%. The “Pre-emergence action against LOLRI (herbicidal activity in percent)” value in assay [8] came to 100%. Also, the “Pre-emergence action against SETVI (herbicidal activity in percent)” value in [9] is recorded as 100%. Also, in assay [10], the “Pre-emergence action against ALOMY (herbicidal activity in percent)” value was determined as 100%. Moreover, the “Pre-emergence action against HORMU (herbicidal activity in percent)” value in assay [11] is on record as 90%.
Take `C#Cc1cc(Br)c(C2=C(O)C3(CCCC(OCCOC)C3)NC2=O)c(OC)c1` (stereo not shown) [Example 1.1.05]: in assay [1], the “Post-emergence action against ECHCG (herbicidal action in per cent)” value amounted to 80%. The “Post-emergence action against LOLRI (herbicidal action in per cent)” value in assay [2] came to 80%. Also, the “Post-emergence action against SETVI (herbicidal action in per cent)” value in assay [3] was 90%. Also, the “Post-emergence action against ALOMY (herbicidal action in per cent)” value in [4] turned out to be 90%. Besides, in [5], the “Post-emergence action against DIGSA (herbicidal action in per cent)” value came to 80%. The “Pre-emergence action against ECHCG (herbicidal activity in percent)” value in assay [6] came to 100%. Besides, the “Pre-emergence action against AVEFA (herbicidal activity in percent)” value in assay [7] is listed as 90%. Further, the “Pre-emergence action against LOLRI (herbicidal activity in percent)” value in assay [8] came out at 100%. For the same molecule, the “Pre-emergence action against SETVI (herbicidal activity in percent)” value in assay [9] is on record as 100%. For the same molecule, the “Pre-emergence action against ALOMY (herbicidal activity in percent)” value in assay [10] was found to be 90%. In [11], the “Pre-emergence action against HORMU (herbicidal activity in percent)” value is given as 90%.
As to `C#Cc1cc(Br)c(C2=C(OC(=O)OCC)C3(CCCC(OCCOC)C3)NC2=O)c(OC)c1` (stereo not shown) [Example 1.1.07], the “Post-emergence action against ECHCG (herbicidal action in per cent)” value in assay [1] is 80%. In addition, the “Post-emergence action against LOLRI (herbicidal action in per cent)” value in assay [2] turned out to be 80%. In addition, the “Post-emergence action against SETVI (herbicidal action in per cent)” value in assay [3] was determined as 90%. In assay [4], the “Post-emergence action against ALOMY (herbicidal action in per cent)” value is 80%. Moreover, the “Post-emergence action against DIGSA (herbicidal action in per cent)” value in [5] is on record as 90%. For the same molecule, the “Pre-emergence action against ECHCG (herbicidal activity in percent)” value in assay [6] came out at 100%. Moreover, in [7], the “Pre-emergence action against AVEFA (herbicidal activity in percent)” value is 90%. Further, in assay [8], the “Pre-emergence action against LOLRI (herbicidal activity in percent)” value was determined as 100%. In assay [9], the “Pre-emergence action against SETVI (herbicidal activity in percent)” value is 100%. Besides, the “Pre-emergence action against ALOMY (herbicidal activity in percent)” value in assay [10] is 90%. The “Pre-emergence action against HORMU (herbicidal activity in percent)” value in assay [11] came to 90%.
Take `C#Cc1cc(Br)c(C2=C(OC(=O)C(C)C)C3(CCCC(OCCOC)C3)NC2=O)c(OC)c1` (stereo not shown) [Example 1.1.08]: in assay [1], the “Post-emergence action against ECHCG (herbicidal action in per cent)” value was 80%. The “Post-emergence action against LOLRI (herbicidal action in per cent)” value in [2] worked out at 90%. Also, the “Post-emergence action against SETVI (herbicidal action in per cent)” value in [3] turned out to be 90%. In addition, the “Post-emergence action against ALOMY (herbicidal action in per cent)” value in assay [4] amounted to 90%. In assay [5], the “Post-emergence action against DIGSA (herbicidal action in per cent)” value was determined as 90%. The “Pre-emergence action against ECHCG (herbicidal activity in percent)” value in assay [6] is reported as 100%. Also, the “Pre-emergence action against AVEFA (herbicidal activity in percent)” value in [7] turned out to be 90%. Besides, the “Pre-emergence action against LOLRI (herbicidal activity in percent)” value in [8] was determined as 100%. The “Pre-emergence action against SETVI (herbicidal activity in percent)” value in assay [9] turned out to be 100%. Also, the “Pre-emergence action against ALOMY (herbicidal activity in percent)” value in assay [10] amounted to 100%. Moreover, the “Pre-emergence action against HORMU (herbicidal activity in percent)” value in assay [11] came out at 90%.
